Measurements published in paper PMC9060607 (RSC Advances, 2019).
Where a name gives a salt, the structure may show the parent alone.

Key:
plasma CES = details: rat plasma, inhibitor 10 mM; cited from earlier work
plasma esterases [1] = test: Inhibition of CDD hydrolysis in rat plasma by esterase inhibitors; assay type: biochemical; details: for % inhibition of CDD hydrolysis: CDD 1.5 μM, 37 °C, 5 s
plasma esterases [2] = test: Inhibition of CDD hydrolysis in human plasma by esterase inhibitors; assay type: biochemical; details: for % inhibition of CDD hydrolysis: CDD 1.5 μM, 37 °C, 5 min
plasma esterases [3] = test: Inhibition of CDD hydrolysis in dog plasma by esterase inhibitors; assay type: biochemical, beagle dog; details: for % inhibition of CDD hydrolysis: CDD 1.5 μM, 37 °C, 15 min

Structure (SMILES)	% inhibition of CDD hydrolysis (plasma esterases [1]; inhibitor 0.1 mM) [%]	% inhibition of CDD hydrolysis (plasma esterases [1]; inhibitor 1 mM) [%]	inhibition of CDD hydrolysis (in words) (plasma esterases [2]; concentration not given)	% inhibition of CDD hydrolysis (plasma esterases [2]; inhibitor 0.1 mM) [%]	% inhibition of CDD hydrolysis (plasma esterases [2]; inhibitor 1 mM) [%]	% inhibition of CDD hydrolysis (plasma esterases [3]; inhibitor 0.1 mM) [%]	% inhibition of CDD hydrolysis (plasma esterases [3]; inhibitor 1 mM) [%]	inhibition of CDD hydrolysis (in words) (plasma esterases [3]; concentration not given)	inhibition of CDD hydrolysis (in words) (plasma esterases [1]; concentration not given)	other results
O=S(=O)(F)Cc1ccccc1 [PMSF, Phenylmethanesulfonyl fluoride]	<10	96.0 ± 9.2	no inhibition	<10	<10	<10	29.6 ± 5.3	–	–	effect on ex vivo hydrolysis of CDD (plasma CES): inhibited
CC(C)NP(=O)(NC(C)C)OP(=O)(NC(C)C)NC(C)C [Iso-OMPA, tetraisopropyl pyrophosphoramide]	99.5 ± 11.2	108.3 ± 5.2	no inhibition	<10	<10	16.9 ± 7.1	17.6 ± 6.7	fewer than those of the aforementioned esterase inhibitors	–	% inhibition of CDD hydrolysis (plasma esterases [1]; inhibitor 0.1 mM, listed as iso-OMPA): > 80%
C=CC[N+](C)(C)c1ccc(CCC(=O)CCc2ccc([N+](C)(C)CC=C)cc2)cc1.[Br-].[Br-] [BW284c51, 1,5-bis(4-allyldimethylammoniumphenyl)pentan-3-one dibromide]	–	–	no inhibition	–	–	–	–	no inhibition	did not prevent	% inhibition of CDD hydrolysis (plasma esterases [1]; inhibitor 10 μM): <10%; % inhibition of CDD hydrolysis (plasma esterases [1]; inhibitor 100 μM): <10%; % inhibition of CDD hydrolysis (plasma esterases [2]; inhibitor 10 μM): <10%; % inhibition of CDD hydrolysis (plasma esterases [2]; inhibitor 100 μM): <10%; % inhibition of CDD hydrolysis (plasma esterases [3]; inhibitor 10 μM): <10%; % inhibition of CDD hydrolysis (plasma esterases [3]; inhibitor 100 μM): <10%
Cl.NCCc1ccc(S(=O)(=O)F)cc1 [Pefabloc® SC, 4-(2-aminoethyl-)benzenesulphonylfloride hydrochloride]	19.4 ± 2.1	99.8 ± 7.9	no inhibition	<10	<10	<10	25.8 ± 3.1	–	–	–
O=[N+]([O-])c1ccc(OP(=O)(O)Oc2ccc([N+](=O)[O-])cc2)cc1 [BNPP, Bis(4-nitrophenyl) phosphate]	83.0 ± 8.9	97.0 ± 7.7	–	<10	42.2 ± 6.7	16.6 ± 8.2	63.6 ± 1.8	–	–	effect on ex vivo hydrolysis of CDD (plasma CES): inhibited; inhibition of CDD hydrolysis (in words) (plasma esterases [2]; inhibitor 1 mM): partial inhibition
[F-].[Na+] [NaF, Sodium fluoride]	–	–	no inhibition	–	–	–	–	no inhibition	–	% inhibition of CDD hydrolysis (plasma esterases [1]; inhibitor 5 mM): <10%; inhibition of CDD hydrolysis (in words) (plasma esterases [1]; inhibitor 10 mM): partially prevented; % inhibition of CDD hydrolysis (plasma esterases [1]; inhibitor 10 mM): 24.4 ± 7.1%; % inhibition of CDD hydrolysis (plasma esterases [2]; inhibitor 5 mM): <10%; % inhibition of CDD hydrolysis (plasma esterases [2]; inhibitor 10 mM): <10%; % inhibition of CDD hydrolysis (plasma esterases [3]; inhibitor 5 mM): <10%; % inhibition of CDD hydrolysis (plasma esterases [3]; inhibitor 10 mM): <10%
O=C([O-])CN(CCN(CC(=O)[O-])CC(=O)O)CC(=O)O.[Na+].[Na+] [EDTA, Ethylenediaminetetraacetic acid disodium]	–	–	no inhibition	–	–	–	–	no inhibition	did not prevent	% inhibition of CDD hydrolysis (plasma esterases [1]; inhibitor 5 mM): <10%; % inhibition of CDD hydrolysis (plasma esterases [1]; inhibitor 10 mM): <10%; % inhibition of CDD hydrolysis (plasma esterases [2]; inhibitor 5 mM): <10%; % inhibition of CDD hydrolysis (plasma esterases [2]; inhibitor 10 mM): <10%; % inhibition of CDD hydrolysis (plasma esterases [3]; inhibitor 5 mM): <10%; % inhibition of CDD hydrolysis (plasma esterases [3]; inhibitor 10 mM): <10%
O=C(O)c1cc(SSc2ccc([N+](=O)[O-])c(C(=O)O)c2)ccc1[N+](=O)[O-] [DTNB, 5,5′-dithiobis-2-nitrobenzoic acid]	<10	<10	–	<10	52.0 ± 1.5	<10	47.8 ± 0.83	–	did not prevent	inhibition of CDD hydrolysis (in words) (plasma esterases [2]; inhibitor 1 mM): moderate inhibition; inhibition of CDD hydrolysis (in words) (plasma esterases [3]; inhibitor 1 mM): moderate inhibition
Cc1ccc(S(=O)(=O)N[C@@H](CCCCN)C(=O)CCl)cc1.Cl [TLCK, N-α-tosyl-L-lysine chloromethylketone hydrochloride]	<10	<10	no inhibition	<10	<10	<10	17.0 ± 10.3	–	did not prevent	–
CNC(=O)Oc1ccc2c(c1)[C@]1(C)CCN(C)[C@@H]1N2C [Eserine, eserine hemisulfate salt]	–	–	no inhibition	–	–	–	–	no inhibition	did not prevent	% inhibition of CDD hydrolysis (plasma esterases [1]; inhibitor 10 μM): <10%; % inhibition of CDD hydrolysis (plasma esterases [1]; inhibitor 100 μM): <10%; % inhibition of CDD hydrolysis (plasma esterases [2]; inhibitor 10 μM): <10%; % inhibition of CDD hydrolysis (plasma esterases [2]; inhibitor 100 μM): <10%; % inhibition of CDD hydrolysis (plasma esterases [3]; inhibitor 10 μM): <10%; % inhibition of CDD hydrolysis (plasma esterases [3]; inhibitor 100 μM): <10%
O=C(O)CN(CCOCCOCCN(CC(=O)O)CC(=O)O)CC(=O)O [EGTA, ethyleneglycol-bis(2-aminoethylether)-tetraacetic acid]	–	–	partially inhibited	–	–	–	–	fewer than those of the aforementioned esterase inhibitors	–	% inhibition of CDD hydrolysis (plasma esterases [1]; inhibitor 5 mM): <10%; % inhibition of CDD hydrolysis (plasma esterases [1]; inhibitor 10 mM): <10%; % inhibition of CDD hydrolysis (plasma esterases [2]; inhibitor 5 mM): 23.2 ± 11.4%; % inhibition of CDD hydrolysis (plasma esterases [2]; inhibitor 10 mM): 26.5 ± 3.6%; % inhibition of CDD hydrolysis (plasma esterases [3]; inhibitor 5 mM): 17.3 ± 6.1%; % inhibition of CDD hydrolysis (plasma esterases [3]; inhibitor 10 mM): 19.9 ± 8.0%
